Test results as given in US20150087587A1, “Process for the Synchronization of Ovulation for Timed Breeding Without Heat Detection” (priority 2003, published 2015).

Columns and labels:
Type in all cases: in vivo, swine
mature postpartum sows = test: Intravulvar injection at estrus detection with AI in mature postpartum sows (Example 2); details: 50 mcg deslorelin in SAIB intravulvar at estrus detection
Experimental: Sows were assigned randomly in blocks of two to either control or to be injected intravulvar with 50 mcg of deslorelin in SAIB at the time of estrus detection for sows first detected in estrus in the a.m. and 12 hours later for those first detected in estrus in the p.m. Treated animals were bred AI upon detected estrus and again 24 hours later if still in estrus. Controls received a saline injection on first detected estrus behavior estrus detection and were bred according to the farm's normal procedures.

postpartum sows [1] = test: Litter size and pregnancy rate after treatment in postpartum sows at three farm sites (Example 4); details: regardless of estrus detection
Description: Postpartum sows were randomly distributed into three different groups comprised of Controls, Treatment 1, and Treatment 2, with the exception of Site 3, which was divided into two groups, Control and Treatment 2. Control sows were detected for estrus following weaning, and bred following the normal standard operating procedures for the farms on which they resided. Treatment 1 sows were detected for estrus following weaning, and received a 50 mcg dose of deslorelin in the morning when standing and were bred by AI 4 hours later and again at 24+/−2 hours later. Treatment 2 sows received a 50 mcg dose of deslorelin in SAIB at 96 or 120 hours post-weaning and were bred with a single insemination 28+/−2 hours later with no regard to estrus detection. […]

postpartum sows [2] = test: Timed injection 96 hours post-weaning and single timed insemination without estrus detection; pregnancy, embryos and CL (Example 3); details: 50 mcg deslorelin in SAIB at 96 hours post-weaning
Experimental: Approximately 170 postpartum sows were randomly divided into two equal groups comprised of controls and treated. Following weaning, the controls were detected for estrus and bred following the normal standard operating procedures for the farms on which they resided. The treated sows received a 50 mcg dose of deslorelin in SAIB at 96 hours post-weaning and were bred with a single insemination 28+/−2 hours later with no regard to estrus detection. The sows were examined for pregnancy by ultrasound at 21 days and slaughtered around 28 days post breeding, The entire reproductive tract was removed and corpora lutea and embryos were counted.

CCNC(=O)[C@@H]1CCCN1C(=O)[C@H](CCCN=C(N)N)NC(=O)[C@H](CC(C)C)NC(=O)[C@@H](Cc1c[nH]c2ccccc12)NC(=O)[C@H](Cc1ccc(O)cc1)NC(=O)[C@H](CO)NC(=O)[C@H](Cc1c[nH]c2ccccc12)NC(=O)[C@H](Cc1cnc[nH]1)NC(=O)[C@@H]1CCC(=O)N1 [Deslorelin, deslorelin]
Pregnancy rates, Control versus Treated (in words) (mature postpartum sows): no significant difference
Litter sizes (in words) (postpartum sows [1]): normal litter sizes
Embryo Survival (postpartum sows [2]; single insemination): 64%
Pregnancy Rate (postpartum sows [2]; single insemination 28+/-2 hours later, no estrus detection): 71%
Sows Pregnant (postpartum sows [2]; single insemination 28+/-2 hours later, 84 in group): 60
